Experimental data taken from patent publication US10039771B2, “Method for cancer cell reprogramming” (STC.UNM, priority 2013, dated 2018).

Legend:
[1] = test system: U937 cells; assay: F-cAMP (Alexa 488-cAMP) efflux assay / high throughput flow cytometry screen; assay type: cell-based, human; conditions: for Hit status in preliminary screen for cAMP efflux inhibitors: Prestwick/SPECTRUM library screen, U937 cells
Experimental: U937 cell were loaded with the analog by a method relying on osmotic lysis of pinocytic vesicles (15). After incubation, cell fluorescence decreased to a level that was close to cell autofluorescence.
Briefly, cells were concentrated and washed, with resuspension NF-RPMI (cRPMI without FBS). Cells were then resuspended in an NF-RPMI hypertonic solution containing poly(ethylene glycol) 1,000 (PEG), sucrose, and Alexa Fluor® 488 8-(6-aminohexyl) aminoadenosine 3′,5′-cyclicmonophosphate, bis(triethylammonium) salt, hereafter referred to as F-cAMP, to give a final concentration of 4.76 mM F-cAMP. Cells were incubated for 10 min, room temperature, then centrifuged and resuspended in hypotonic solution (60% cRPMI, 40% sterile water) for 2 min at room temperature to complete the F-cAMP loading. The cells were then washed and resuspended in cRPMI at a final concentration of 4×10^5 cells/mL, and allowed to equilibrate for 2 hours in a 37° C., 5% CO2/95% air incubator.
The remainder of the cells was incubated (37° C., 5% CO2/95% air) in the presence of dimethyl sulfoxide (DMSO) vehicle or compounds overnight. Flow cytometry was used to measure samples, and unstained U937 cells were used to create a gate to mark viable cells. Control and experimental samples were excited with a 488 nm laser and analyzed for FL-1 median fluorescence intensity (MFI) within that gate.
For the high throughput screening assay (HTS), U937 cells were loaded with F-cAMP as described above. Solutions were added to 384-well plates (Greiner 784201) with a Biomek FX Multichannel system (Beckman-Coulter) and/or MicroFlo as follows: 1) 5 μL cRPMI; 2) 100 nL compounds from the Prestwick Chemical Library or Spectrum 2000 Library in DMSO were delivered by pintool (V&P Scientific, San Diego, Calif.), final DMSO concentration=1%; 3) 5 μL F-cAMP cells. Negative control wells contained stained cells with 1% DMSO only. For positive controls, F-cAMP cells were treated with 200 μM MK-571. The final concentration for all conditions was 2000 cells/well. The plates were sealed with foil, and incubated (37° C., 5% CO2/95% air) inverted overnight.
After incubation, the 384-well sample plates were analyzed by CyAn flow cytometers (Beckman-Coulter) configured with HyperCyt high throughput auto-sampler systems (IntelliCyt Albuquerque, N. Mex.). The samples were interrogated with 488 nm lasers to assess FL-1 MCI levels.
Data from the HTS were analyzed with HyperView software (IntelliCyt, Albuquerque, N. Mex.) and gated on untreated, live cell populations and then time-gated to separate data per well. FL-1 MCI values for the samples were analyzed per plate. Those samples which reported MCI values≥2 standard deviations above the plate mean negative control values were considered “hit” compounds.
To validate the identified samples and decrease the number of potential false-positive compounds, the hit compounds were assayed in a high-throughput dose response assay. This assay set up 384-well plates with the same volumes of F-cAMP cells, cRPMI, and DMSO/compounds as in the HTS, with the plate formats containing 10-well dose responses for each hit compound, at final concentrations ranging 30 μM to 4 nM. These plates were also foil-sealed, and incubated inverted overnight. Post-incubation, the dose response plates were analyzed by high throughput flow cytometry, as above. […]

[2] = test system: U937 cells; assay: Annexin V-PE/7-AAD apoptosis assay; assay type: cell-based; conditions: Homo sapiens
Text: To detect apoptosis we used an Annexin V and 7-amino-actinomycin D (7-AAD) based assay. Annexin V is a protein that has high binding affinity to phosphatidylserine, which is translocated from the inner to the outer leaflet of the membrane during early apoptosis. 7-AAD is a DNA dye that stains cells only when the cell membranes are permeable. Thus, double positive events are considered to represent end stage apoptosis and dead cells. […] The results obtained using this assay correlated well with the results of other assays:
Six-well plates were set up with dose responses for each of the 11 hit compounds (artemisinin, artemether, artesunate, dihydroartemisinin, parthenolide, patulin, clioquinol, cryptotanshinone, pyrithione zinc, harmalol, quinalizarin). Each well contained 2.5×10^6 U937 cells in 5 mL cRPMI. To each well, 15 μL of compound in DMSO (or vehicle control) was fTadded, giving final concentrations of 0, 300 nM, and 1, 3, 10, and 30 […] were incubated overnight, at 37° C., 5% CO2/95% air. The compound effects on apoptosis were assessed with an Annexin V-PE/7-amino-actinomycin D (7-AAD) kit (BD Pharmingen™ cat. no. 559763), according to manufacturer protocol, and data were collected with a BD Accuri™ C6 flow cytometer. A gate was set for live cells, and 10,000 gated events were collected per sample. FL-2 versus FL-3 channel dot plots were divided into quadrants and were used to determine percentages of gated cells that were Annexin V^−/7-AAD^− (live, healthy cells), Annexin V^+/7-AAD^− (early apoptosis), or Annexin V^+/7-AAD^+ (late, full apoptosis).
[…] The samples were plotted as Annexin V vs 7-AAD and quadrant-gated. Annexin V^+, 7-AAD^− events are indicative of early apoptosis, in which phosphatidyl serine has flipped to the outer leaflet of the cell membrane. Annexin V^+, 7-AAD^+ (double positive) events indicate cell and nuclear membrane permeabilization, marking late apoptotic events or complete cell death.

[3] = test system: healthy human peripheral blood mononuclear cells (PBMCs); assay: Cell TiterGlo luminescent cell viability assay in PBMCs
[4] = test system: Reh cells; assay: Cross-cell line test for cAMP efflux (F-cAMP); assay type: cell-based, human; conditions: 37° C., 100 μM MK-571, overnight
Experimental: (§1) To study the differences in cAMP-removal, cells were loaded with a fluorescent cAMP-analog, and incubated under different conditions: low temperature (4° C.) used to estimate the passive probe “leakage”, and physiological temperature (37° C.) used to assess active removal of the probe.
(§2) Briefly, 15 million cells were loaded with F-cAMP via the osmotic process detailed above. Small volumes of cells were analyzed by flow cytometry post-staining to determine baseline fluorescence values based on MFI. […] The remaining cells were split in half, and one group was treated with a final concentration of 100 μM MK-571, while the other received DMSO-only at an equal volume. These two groups of cells were incubated ˜24 hr according to standard tissue culture conditions (37° C., 5% CO2/95% air). After incubation, cells were analyzed with flow cytometry for FL-1 MFI.
(§3) Because cells loaded with F-cAMP were washed, the resulting concentration gradient could have caused a “passive leak” of the probe. All 6 cell lines appeared to efflux F-cAMP, although to different extents (FIG. 7A a). After incubation at 4° C., the cells lost 20-60% of their fluorescence from the initial F-cAMP loading.

[5] = test system: RS4; 11 cells; assay: Cross-cell line test for cAMP efflux (F-cAMP); assay type: cell-based, human; conditions: 11, 37° C., 100 μM MK-571, overnight
Experimental: as §1, §2, §3

[6] = test system: Sup B15 cells; assay: Cross-cell line test for cAMP efflux (F-cAMP); assay type: cell-based, human; conditions: Sup B15, 37° C., 100 μM MK-571, overnight
Experimental: as §1, §2, §3

[7] = test system: Nalm 6 cells; assay: Cross-cell line test for cAMP efflux (F-cAMP); assay type: cell-based, human; conditions: Nalm 6, 37° C., 100 μM MK-571, overnight
Experimental: as §1, §2, §3

[8] = test system: MHH Call 3 cells; assay: Cross-cell line test for cAMP efflux (F-cAMP); assay type: cell-based, human; conditions: MHH Call 3, 37° C., 100 μM MK-571, overnight
Experimental: as §1, §2, §3

[9] = test system: 697 cells; assay: Cross-cell line test for cAMP efflux (F-cAMP); assay type: cell-based, human; conditions: 697, 37° C., 100 μM MK-571, overnight
Experimental: as §1, §2, §3

[10] = test system: U937 cells; assay: Propidium iodide cell cycle assay; conditions: 24 hour incubation, dose response
[11] = test system: U937 cells; assay: CellTrace CFSE cell proliferation assay; conditions: 3 μM, 48 hr
[12] = U-937, U937 cells, overnight incubation, dose responses 300 nM to 30 μM, read-out: Calculated EC50 values from Annexin V, 7-AAD double positive events
[13] = U-937, read-out: Calculated EC50 values from Annexin V, 7-AAD double positive events

With `CC1=C(CC(=O)O)c2cc(F)ccc2/C1=C\c1ccc([S+](C)[O-])cc1` (stereo not drawn) [sulindac] the “Hit status in preliminary screen for cAMP efflux inhibitors” value (“Hit status … for cAMP efflux inhibitors” below) [1] was “did not come out as hits”.
`C[C@H]1[C@@H](O)O[C@@H]2O[C@@]3(C)CC[C@H]4[C@H](C)CC[C@@H]1[C@@]24OO3` [Dihydroartemisinin, dihydroartemisinin] showed an EC50 [2, 12] of 55.7 µM.
For `CO[C@H]1O[C@@H]2O[C@@]3(C)CC[C@H]4[C@H](C)CC[C@@H]([C@H]1C)[C@@]24OO3` [Artemether, artemether], the EC50 [2, 12] was 106 µM.
For `C[C@@H]1CC[C@H]2[C@@H](C)C(=O)O[C@@H]3O[C@@]4(C)CC[C@@H]1[C@]32OO4` [Artemisinin, artemisinin], the EC50 [2, 12] was 249 µM.
`O=C1c2ccc(O)c(O)c2C(=O)c2c(O)ccc(O)c21` [Quinalizarin, quinalizarin] showed an EC50 [2, 12] of 172 µM.
With `[O-][n+]1ccccc1[S-].[O-][n+]1ccccc1[S-].[Zn+2]` [Pyrithione zinc, pyrithione zinc] the “Selectivity: concentrations required by leukemic cells versus PBMCs (calculated EC50 values)” value ([3]; viability EC50, leukemic cell lines vs PBMCs) was “exception”.
With `CN(C)C(=O)CCSC(SCCC(=O)O)c1cccc(/C=C/c2ccc3ccc(Cl)cc3n2)c1` (stereo not drawn) [MK-571] the EC50 ([1]; Homo sapiens, U-937, read-out: EC50 for inhibition of cAMP efflux calculated in assay development, U937 cells loaded with F-cAMP, overnight) was 31 µM, the “Effect on cAMP efflux” value ([1]; U937 cells loaded with F-cAMP, overnight) was “down-modulated cAMP efflux in a dose-dependent manner” and the “F-cAMP probe removed in the presence of MK-571” value (shortened to “F-cAMP probe removed”) [4] was 30-40%. The “F-cAMP probe removed” value [5] was 30-40%, the “F-cAMP efflux in the presence of MK-571” value [6] was “blocked completely” and the “F-cAMP probe removed” value [7] was 60-70%. The “F-cAMP efflux in the presence of MK-571” value [8] was “blocked completely” and the “F-cAMP probe removed” value [9] was 60-70%.
In the case of `C[C@H]1COC2=C1C(=O)C(=O)c1c2ccc2c1CCCC2(C)C` [Cryptotanshinone, cryptotanshinone], the EC50 ([3]; Homo sapiens, PBMC, read-out: EC50 for decreased PBMC viability) is reported as about 12 µM and the EC50 [2, 13] is reported as 53.5 µM.
For `O=C(O)Cc1ccccc1Nc1c(Cl)cccc1Cl` [diclofenac], the “Hit status … for cAMP efflux inhibitors” value [1] was “did not come out as hits”.
In the case of `CC[C@@]1(O)C(=O)OCc2c1cc1n(c2=O)Cc2cc3c(CN(C)C)c(O)ccc3nc2-1` [topotecan], the “Hit status … for cAMP efflux inhibitors” value [1] is reported as “did not come out as hits”.
For `C[C@H]1[C@H](OC(=O)CCC(=O)O)O[C@@H]2O[C@@]3(C)CC[C@H]4[C@H](C)CC[C@@H]1[C@@]24OO3` [Artesunate, artesunate], the “Effect on cell cycle (PI staining)” value [10] was “increased percentages of cells in G1 or apoptosis in a dose-dependent manner” and the EC50 [2, 12] was 99.1 µM.
In the case of `O=C1C=C2C(=CCOC2O)O1` (stereo not drawn) [Patulin, patulin], the “Effect on cell division (CFSE fluorescence)” value [11] is reported as “arrest of cell division within 48 hr” and the EC50 [2, 13] is reported as 3.29 µM.
Compound `Oc1c(I)cc(Cl)c2cccnc12` [Clioquinol, clioquinol] has an EC50 [2, 12] of 76.6 µM.
`CC1=NCCc2c1[nH]c1cc(O)ccc21` [Harmalol, harmalol] gave an EC50 [2, 12] of 283 µM.
